# Experimental data from patent US10160762B2, “6-alkyl dihydropyrazolopyrimidinone compounds as PDE2 inhibitors” (Merck Sharp & Dohme Corp., priority 2015, dated 2018).
# Biological target: T1, Rhesus PDE2A3 (Macaca mulatta, UniProt B3VTJ2)
# T1 construct: made in house; host or cells: AD293 cells, transient transfection; supernatant of sonicated lysate
# T1 sequence (B3VTJ2 1-941): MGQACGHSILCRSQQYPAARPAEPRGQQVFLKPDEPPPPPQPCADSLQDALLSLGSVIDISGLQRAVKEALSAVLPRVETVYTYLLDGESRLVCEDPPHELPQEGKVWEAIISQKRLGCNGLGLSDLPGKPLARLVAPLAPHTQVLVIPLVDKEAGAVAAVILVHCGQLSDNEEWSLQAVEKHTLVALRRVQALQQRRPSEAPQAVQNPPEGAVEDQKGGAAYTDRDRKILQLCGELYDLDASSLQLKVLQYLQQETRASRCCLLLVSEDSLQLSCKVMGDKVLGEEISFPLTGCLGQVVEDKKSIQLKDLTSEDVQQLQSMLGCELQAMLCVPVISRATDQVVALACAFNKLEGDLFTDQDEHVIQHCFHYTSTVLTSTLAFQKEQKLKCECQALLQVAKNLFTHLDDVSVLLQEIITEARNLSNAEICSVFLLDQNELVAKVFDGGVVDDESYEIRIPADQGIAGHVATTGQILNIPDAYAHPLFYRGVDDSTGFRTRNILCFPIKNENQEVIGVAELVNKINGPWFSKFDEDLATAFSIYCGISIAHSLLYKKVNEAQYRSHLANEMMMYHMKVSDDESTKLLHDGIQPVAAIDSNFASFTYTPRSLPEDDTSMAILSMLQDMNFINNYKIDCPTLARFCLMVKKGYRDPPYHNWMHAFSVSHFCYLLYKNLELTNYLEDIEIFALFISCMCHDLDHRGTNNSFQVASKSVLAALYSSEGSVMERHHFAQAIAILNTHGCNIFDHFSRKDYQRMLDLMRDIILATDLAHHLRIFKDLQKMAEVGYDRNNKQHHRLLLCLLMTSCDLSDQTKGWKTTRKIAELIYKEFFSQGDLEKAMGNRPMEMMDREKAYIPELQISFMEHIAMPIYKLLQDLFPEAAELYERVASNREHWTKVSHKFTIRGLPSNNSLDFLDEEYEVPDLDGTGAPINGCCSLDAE
# Test: PDE2 fluorescence polarization (IMAP FP) inhibition assay, rhesus PDE2A3
# Assay type: biochemical, rhesus macaque
# Conditions: Lab A; read-out: Rhesus PDE2 Ki (nM) Lab A
# Description: The activity of the compounds in accordance with the present invention as PDE2 inhibitors may be readily determined using a fluorescence polarization (FP) methodology (Huang, W., et al., J. Biomol Screen, 2002, 7: 215).
# The PDE2 inhibitory activity of the compounds of the present invention was determined in accordance with the following experimental method. Rhesus PDE2A3 was amplified from rhesus macaque brain cDNA (Biochain Institute, Hayward, Calif.) using primers based on human PDE2A sequence (accession NM_002599.3) where the forward primer containing a Kozak consensus was 5′-[…]-3′ and the reverse primer was 5′-[…]-3′. Amplification with Easy-A High-Fidelity PCR cloning enzyme (Stratagene, La Jolla, Calif.) was 95° C. for 2 minutes followed by thirty three cycles of 95° C. for 40 seconds, 52° C. for 30 seconds, and 72° C. for 2 minutes 48 seconds. Final extension was 72° C. for 7 minutes. The PCR product was TA cloned into pcDNA3.3-TOPO (Invitrogen, Carlsbad, Calif.) according to standard protocol. A consensus sequence was developed from multiple clones and then deposited into GenBank (EU812167). AD293 cells (Stratagene, La Jolla, Calif.) with 70-80% confluency were transiently transfected with rhesus PDE2A3/pcDNA3.3-TOPO using Lipofectamine 2000 according to manufacturer specifications (Invitrogen, Carlsbad, Calif.). Cells were harvested 48 hours post-transfection and lysed by sonication (setting 3, 10×5 sec pulses) in a buffer containing 20 mM HEPES pH 7.4, 1 mM EDTA and Complete Protease Inhibitor Cocktail Tablets (Roche, Indianapolis, Ind.). Lysate was collected by centrifugation at 75,000×g for 20 minutes at 4° C. and supernatant utilized for evaluation of PDE2 activity. The fluorescence polarization assay for cyclic nucleotide phosphodiesterases was performed using an IMAP® FP kit supplied by Molecular Devices, Sunnyvale, Calif. (product #R8139). […] Assays were performed at room temperature in 384-well microtiter plates with an incubation volume of 20.2 μL. Solutions of test compounds were prepared in DMSO and serially diluted with DMSO to yield 8 μL of each of 10 solutions differing by 3-fold in concentration, at 32 serial dilutions per plate. […] 0% of inhibition is determined by using DMSO (1% final concentrations).
# A Labcyte Echo 555 (Labcyte, Sunnyvale, Calif.) is used to dispense 200 nL from each well of the titration plate to the 384 well assay plate. Ten microliters of a solution of enzyme (1/2000 final dilution from aliquots; sufficient to produce 20% substrate conversion) was added to the assay plate. Next 10 uL of a separate solution of the substrate FAM-labeled cAMP (50 nM final concentration product # R7506 from Molecular Devices) and the activator cGMP (1 uM final concentration), prepared in the assay buffer (10 mM Tris HCl, pH 7.2, 10 mM MgCl2, 0.05% NaN3 0.01% Tween-20, and 1 mM DTT) was added to the assay plate and shaken to mix. The reaction is allowed to proceed at room temperature for 60 minutes. A binding solution is then made from the kit components, comprised of 80% Solution A, 20% Solution B and binding reagent at a volume of 1/600 the total binding solution. The enzymatic reaction is stopped by addition of 60 μL of the binding solution to each well of the assay plates and the plates are sealed and shaken for 30 seconds. The plate was incubated at room temperature for at least one hour prior to determining the fluorescence polarization (FP). The parallel and perpendicular fluorescence of each well of the plate was measured using a Tecan Genios Pro plate reader (Tecan, Switzerland) or Perkin Elmer EnVision™ plate reader (Waltham, Mass.). Fluorescence polarization (mP) was calculated from the parallel (S) and perpendicular (P) fluorescence of each sample well and the analogous values for the median control well, containing only substrate (So and Po), using the following equation: Polarization(mP)=1000*(S/So−P/Po)/(S/So+P/Po).
row,SMILES,Ki
1,"Cc1nc2c(c(C)nn2C(C)C(=O)Nc2ccc(C(F)(F)F)cc2)c(=O)[nH]1 (stereo not shown) [Example 334, 2-(3,6-Dimethyl-4-oxo-4,5-dihydropyrazolo[3,4-d]pyrimidin-1-yl)-N-(4-(trifluoromethyl)phenyl)propanamide]",> 1000 nM
2,"Cc1nc2c(c(C)nn2CC(O)c2ccc(C(F)(F)F)cc2)c(=O)[nH]1 (stereo not shown) [Example 335, 1-(2-Hydroxy-2-(4-(trifluoromethyl)phenyl)ethyl)-3,6-dimethyl-1H-pyrazolo[3,4-d]pyrimidin-4(5H)-one]",> 1000 nM
3,"Cc1nc2c(c(C)nn2CC(=O)Nc2ccc(C(F)(F)F)cc2)c(=O)[nH]1 [Example 337, 2-(3,6-Dimethyl-4-oxo-4,5-dihydro-1H-pyrazolo[3,4-d]pyrimidin-1-yl)-N-(4-(trifluoromethyl)phenyl)acetamide]",> 1000 nM

# More lines, now with the values ahead:
row,Ki,SMILES
1,> 1000 nM,"Cc1nc2c(c(C)nn2CC(C)(O)c2ccc(C(F)(F)F)cc2)c(=O)[nH]1 (stereo not shown) [Example 336, 1-(2-Hydroxy-2-(4-(trifluormethyl)phenyl)propyl)-3,6-dimethyl-1H-pyrazolo[4-d]pyrimidin-4(5H)-one]"
2,292 nM,"Cc1nc2c(c(C)nn2C(CCCc2ccccc2)c2sc(C)nc2C)c(=O)[nH]1 (stereo not shown) [Example 339, 1-[1-(2,4-dimethyl-1,3-thiazol-5-yl)-4-phenylbutyl]-3,6-dimethyl-1,5-dihydro-4H-pyrazolo[3,4-d]pyrimidin-4-one]"

# Same assay, conditions: Lab B; read-out: Rhesus PDE2 Ki (nM) Lab B
row,SMILES,Ki
1,"CC(=O)OCc1nn(C(C)c2ccc(C(F)(F)F)cc2)c2nc(C)[nH]c(=O)c12 (stereo not shown) [Example 319, (6-Methyl-4-oxo-1-(1-(4-(trifluoromethyl)phenyl)ethyl)-4,5-dihydro-1H-pyrazolo[3,4-d]pyrimidin-3-yl)methyl acetate]",283 nM
2,"Cc1nc2c(c(C)nn2C(C)CN(C)c2ccc(C(F)(F)F)cc2)c(=O)[nH]1 (stereo not shown) [Example 331, 3,6-Dimethyl-1-(1-(methyl(4-(trifluoromethyl)phenyl)amino)propan-2-yl)-1H-pyrazolo[3,4-d]pyrimidin-4(5H)-one]",1440 nM

# Now from value to compound:
row,Ki,SMILES
1,2410 nM,"Cc1nc2c(c(C)nn2C(C)CNc2ccc(C(F)(F)F)cc2)c(=O)[nH]1 (stereo not shown) [Example 330, 3,6-Dimethyl-1-(1-(4-(trifluoromethyl)phenylamino)propan-2-yl)-1H-pyrazolo[3,4-d]pyrimidin-4(5H)-one]"
2,8880 nM,"Cc1nc2c(c(C)nn2C(C)C(O)c2ccc(C(F)(F)F)cc2)c(=O)[nH]1 (stereo not shown) [Example 332, 1-(1-Hydroxy-1-(4-(trifluoromethyl)phenyl)propan-2-yl)-3,6-dimethyl-1H-pyrazolo[3,4-d]pyrimidin-4(5H)-one]"
3,~29000 nM,"Cc1nc2c(c(C)nn2C(C)C(C)(O)c2ccc(C(F)(F)F)cc2)c(=O)[nH]1 (stereo not shown) [Example 333, 1-(3-Hydroxy-3-(4-(trifluoromethyl)phenyl)butan-2-yl)-3,6-dimethyl-1H-pyrazolo[3,4-d]pyrimidin-4(5H)-one]"
4,7660 nM,"Cc1nc2c(c(C)nn2CC(C)(O)c2ccc(C(F)(F)F)cc2)c(=O)[nH]1 (stereo not shown) [Example 336, 1-(2-Hydroxy-2-(4-(trifluormethyl)phenyl)propyl)-3,6-dimethyl-1H-pyrazolo[4-d]pyrimidin-4(5H)-one]"

# Tested on: other PDE isoforms
# Test: not given
# Conditions: reported in Brandon et al., Annual Reports in Medicinal Chemistry 42, 2007; cited from earlier work
row,SMILES,potency at other PDE isoforms
1,"COc1ccc(Cc2nn3c([C@@H](CCCc4ccccc4)[C@@H](C)O)nc(C)c3c(=O)[nH]2)cc1OC [BAY 60-7550, Bay 60-7550]",significant potency

# Tested on: not given
# Test: not given
# Conditions: reported in Brandon et al., Annual Reports in Medicinal Chemistry 42, 2007; cited from earlier work
row,SMILES,brain penetration
1,"COc1ccc(Cc2nn3c([C@@H](CCCc4ccccc4)[C@@H](C)O)nc(C)c3c(=O)[nH]2)cc1OC [BAY 60-7550, Bay 60-7550]",limited
